Test system: P. falciparum K1 (strain resistant to chloroquine and pyrimethamine), erythrocytic stages
Test: Plasmodium falciparum in vitro assay, [3H] hypoxanthine incorporation
Type: cell-based
Conditions: Plasmodium falciparum, K1, P. falciparum strain K1; [3H] hypoxanthine incorporation; read-out: IC50 (nM) on K1
How it was run: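 K1 strain parasites grown in human red cells, 2.5% haematocrit, 0.3% parasitaemia, 37 °C, 4% CO2/3% O2; compounds in seven serial doubling dilutions.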

Row | Compound | IC50 [nM]
1 | COCCN(C)C(=O)[C@H](Cc1ccccc1)N(Cc1ccc(-c2cncnc2)cc1)C(=O)C=Cc1csc(C)n1 [Example 122, (S)-N-{1-[(2-Methoxy-ethyl)-methyl-carbamoyl]-2-phenyl-ethyl}-3-(2-methyl-thiazol-4-yl)-N-(4-pyrimidin-5-yl-benzyl)-acrylamide] | 156
2 | COCCN(C)C(=O)[C@H](Cc1ccccc1)N(Cc1ccc(-c2cncnc2)cc1)C(=O)C=Cc1cc(C)on1 [Example 123, (S)-N-{1-[(2-Methoxy-ethyl)-methyl-carbamoyl]-2-phenyl-ethyl}-3-(5-methyl-isoxazol-3-yl)-N-(4-pyrimidin-5-yl-benzyl)-acrylamide] | 296
3 | COCCN(C)C(=O)[C@H](Cc1ccccc1)N(Cc1ccc(-c2cncnc2)cc1)C(=O)C=Cc1c(C)noc1C [Example 124, (S)-3-(3,5-Dimethyl-isoxazol-4-yl)-N-{1-[(2-methoxy-ethyl)-methyl-carbamoyl]-2-phenyl-ethyl}-N-(4-pyrimidin-5-yl-benzyl)-acrylamide] | 110
4 | COCCN(C)C(=O)[C@H](Cc1ccccc1)N(Cc1ccc(-c2cncnc2)cc1)C(=O)C=Cc1csnn1 [Example 125, (S)-N-{1-[(2-Methoxy-ethyl)-methyl-carbamoyl]-2-phenyl-ethyl}-N-(4-pyrimidin-5-yl-benzyl)-3-[1,2,3]thiadiazol-4-yl-acrylamide] | 439
5 | COCCN(C)C(=O)[C@H](Cc1ccccc1)N(Cc1ccc(-c2cncnc2)cc1)C(=O)C=Cc1ccc(OC)nn1 [Example 126, (S)-N-{1-[(2-Methoxy-ethyl)-methyl-carbamoyl]-2-phenyl-ethyl}-3-(6-methoxy-pyridazin-3-yl)-N-(4-pyrimidin-5-yl-benzyl)-acrylamide] | 160
6 | COCCN(C)C(=O)[C@H](Cc1ccccc1)N(Cc1ccc(-c2cncnc2)cc1)C(=O)C=Cc1ccc(Cl)cn1 [Example 127, (S)-3-(5-Chloro-pyridin-2-yl)-N-{1-[(2-methoxy-ethyl)-methyl-carbamoyl]-2-phenyl-ethyl}-N-(4-pyrimidin-5-yl-benzyl)-acrylamide] | 21
7 | COCCN(C)C(=O)[C@H](Cc1ccccc1)N(Cc1ccc(-c2cncnc2)cc1)C(=O)C=Cc1ccc(Cl)nc1 [Example 128, (S)-3-(6-Chloro-pyridin-3-yl)-N-{1-[(2-methoxy-ethyl)-methyl-carbamoyl]-2-phenyl-ethyl}-N-(4-pyrimidin-5-yl-benzyl)-acrylamide] | 94
8 | COCCN(C)C(=O)[C@H](Cc1ccccc1)N(Cc1ccc(-c2cncnc2)cc1)C(=O)C=Cc1cnc(OC)nc1 [Example 129, (S)-N-{1-[(2-Methoxy-ethyl)-methyl-carbamoyl]-2-phenyl-ethyl}-3-(2-methoxy-pyrimidin-5-yl)-N-(4-pyrimidin-5-yl-benzyl)-acrylamide] | 19
9 | COCCN(C)C(=O)[C@H](Cc1ccccc1)N(Cc1ccc(-c2cncnc2)cc1)C(=O)C=Cc1ccc(C(F)(F)F)cn1 [Example 130, (S)-N-{1-[(2-Methoxy-ethyl)-methyl-carbamoyl]-2-phenyl-ethyl}-N-(4-pyrimidin-5-yl-benzyl)-3-(5-trifluoromethyl-pyridin-2-yl)-acrylamide] | < 8
10 | COCCN(C)C(=O)[C@H](Cc1ccccc1)N(Cc1ccc(-c2cccnc2)cc1)C(=O)C=Cc1cnc(C)n1C [Example 131, (S)-3-(2,3-Dimethyl-3H-imidazol-4-yl)-N-{1-[(2-methoxy-ethyl)-methyl-carbamoyl]-2-phenyl-ethyl}-N-(4-pyridin-3-yl-benzyl)-acrylamide] | 282
11 | COCCN(C)C(=O)[C@H](Cc1ccccc1)N(Cc1ccc(-c2cccnc2)cc1)C(=O)C=Cc1sc(C)nc1C [Example 132, (S)-3-(2,4-Dimethyl-thiazol-5-yl)-N-{1-[(2-methoxy-ethyl)-methyl-carbamoyl]-2-phenyl-ethyl}-N-(4-pyridin-3-yl-benzyl)-acrylamide] | 28
12 | COCCN(C)C(=O)[C@H](Cc1ccccc1)N(Cc1ccc(-c2cccnc2)cc1)C(=O)C=Cc1nc(C)oc1C [Example 133, (S)-3-(2,5-Dimethyl-oxazol-4-yl)-N-{1-[(2-methoxy-ethyl)-methyl-carbamoyl]-2-phenyl-ethyl}-N-(4-pyridin-3-yl-benzyl)-acrylamide] | 82
13 | COCCN(C)C(=O)[C@H](Cc1ccccc1)N(Cc1ccc(-c2cccnc2)cc1)C(=O)C=Cc1ccc(Cl)nc1 [Example 134, (S)-3-(6-Chloro-pyridin-3-yl)-N-{1-[(2-methoxy-ethyl)-methyl-carbamoyl]-2-phenyl-ethyl}-N-(4-pyridin-3-yl-benzyl)-acrylamide] | 33
14 | COCCN(C)C(=O)[C@H](Cc1ccccc1)N(Cc1ccc(-c2cccnc2)cc1)C(=O)C=Cc1ccc(OC)nc1 [Example 135, (S)-N-{1-[(2-Methoxy-ethyl)-methyl-carbamoyl]-2-phenyl-ethyl}-3-(6-methoxy-pyridin-3-yl)-N-(4-pyridin-3-yl-benzyl)-acrylamide] | < 8
15 | CN(C)C1CCN(C(=O)[C@H](Cc2ccccc2)N(Cc2ccc(N3CCOCC3)nc2)C(=O)C=Cc2ccc(C(F)(F)F)cc2)CC1 [Example 136, (S)-N-[1-Benzyl-2-(4-dimethylamino-piperidin-1-yl)-2-oxo-ethyl]-N-(6-morpholin-4-yl-pyridin-3-ylmethyl)-3-(4-trifluoromethyl-phenyl)-acrylamide] | 74
16 | O=C([C@H](Cc1ccccc1)N(Cc1ccc(N2CCOCC2)nc1)C(=O)C=Cc1ccc(C(F)(F)F)cc1)N1CCC(Cc2ccccc2)CC1 [Example 143, (S)-N-[1-Benzyl-2-(4-benzyl-piperidin-1-yl)-2-oxo-ethyl]-N-(6-morpholin-4-yl-pyridin-3-ylmethyl)-3-(4-trifluoromethyl-phenyl)-acrylamide] | 5
17 | O=C([C@H](Cc1ccccc1)N(Cc1ccc(N2CCOCC2)nc1)C(=O)C=Cc1ccc(C(F)(F)F)nc1)N1CCC(Cc2ccccc2)CC1 [Example 144, (S)-N-[1-Benzyl-2-(4-benzyl-piperidin-1-yl)-2-oxo-ethyl]-N-(6-morpholin-4-yl-pyridin-3-ylmethyl)-3-(6-trifluoromethyl-pyridin-3-yl)-acrylamide] | 24
18 | COc1ccc(C=CC(=O)N(Cc2ccc(N3CCOCC3)nc2)[C@@H](Cc2ccccc2)C(=O)N2CCC(Cc3ccccc3)CC2)cc1 [Example 145, (S)-N-[1-Benzyl-2-(4-benzyl-piperidin-1-yl)-2-oxo-ethyl]-3-(4-methoxy-phenyl)-N-(6-morpholin-4-yl-pyridin-3-ylmethyl)-acrylamide] | 5
19 | Cc1ccc(C=CC(=O)N(Cc2ccc(N3CCOCC3)nc2)[C@@H](Cc2ccccc2)C(=O)N2CCC(Cc3ccccc3)CC2)cc1 [Example 146, (S)-N-[1-Benzyl-2-(4-benzyl-piperidin-1-yl)-2-oxo-ethyl]-N-(6-morpholin-4-yl-pyridin-3-ylmethyl)-3-p-tolyl-acrylamide] | 9
20 | Cc1ccc(C=CC(=O)N(Cc2ccc(N3CCOCC3)nc2)[C@@H](Cc2ccccc2)C(=O)N2CCOCC2)cc1 [Example 147, (S)-N-(1-Benzyl-2-morpholin-4-yl-2-oxo-ethyl)-N-(6-morpholin-4-yl-pyridin-3-ylmethyl)-3-p-tolyl-acrylamide] | 77
21 | COc1ccc(C=CC(=O)N(Cc2ccc(N3CCOCC3)nc2)[C@@H](Cc2ccccc2)C(=O)N2CCOCC2)cc1 [Example 148, (S)-N-(1-Benzyl-2-morpholin-4-yl-2-oxo-ethyl)-3-(4-methoxy-phenyl)-N-(6-morpholin-4-yl-pyridin-3-ylmethyl)-acrylamide] | 65
